# Assay results reported in patent EP2725026A1, “Heterocyclic neoflavonoids with taste masking properties” (Symrise AG, priority 2012, dated 2014).
# Tests used:
# Type in all cases: in vivo
# [1] = Bitterness reduction of a bitter substance solution (expert sensory panel), naringin; details: 100 ppm Naringin; for Bitter-Eindruck (1-10) mit Testsubstanz: scale 1 [nicht bitter] to 10 [extrem bitter]
# Excerpt: (§1) Um die Reduzierung (d.h. die Maskierung oder Verminderung) des Bitter-Eindrucks in einer Probe zu quantifizieren, wurde die Bitterkeit einer Lösung enthaltend 500 ppm Coffein oder 300 ppm Theobromin oder 100 ppm Naringin von einer Expertengruppe jeweils mit einer Probe verglichen, die 500 ppm Coffein oder 300 ppm Theobromin oder 100 ppm Naringin und zusätzlich die jeweils angegebene Menge einer (hinsichtlich der Fähigkeit zur Bitter-Reduzierung) zu beurteilenden Substanz enthielt (Einstufung: 1 [nicht bitter] bis 10 [extrem bitter]). Für die Auswertung, d.h. die Berechnung der Reduktion (in %) des Bittereindrucks wurden jeweils die Durchschnittswerte der Einschätzungen der Expertengruppe verwendet. Die Ergebnisse sind in Tabelle 1 zusammengefasst: Tabelle 1 Bitter-reduzierung einer Bitterstofflösung
# [2] = Bitterness reduction of a bitter substance solution (expert sensory panel), caffeine; details: 500 ppm Coffein; for Bitter-Eindruck (1-10) mit Testsubstanz: scale 1 [nicht bitter] to 10 [extrem bitter]
# Excerpt: as §1
# [3] = Bitterness reduction of a bitter substance solution (expert sensory panel), theobromine; details: 25 ppm test substance, 300 ppm Theobromin; for Bitter-Eindruck (1-10) mit Testsubstanz: scale 1 [nicht bitter] to 10 [extrem bitter]
# Excerpt: as §1
Compound,"% Reduktion des Bitter-Eindrucks (Signifikanz) ([1]; 25 ppm test substance, p < 0,0001)","Bitter-Eindruck (1-10) mit Testsubstanz ([1]; 25 ppm test substance, without test substance 6,6 ± 2,0)","% Reduktion des Bitter-Eindrucks (Signifikanz) ([2]; 10 ppm test substance, p < 0,0007)","Bitter-Eindruck (1-10) mit Testsubstanz ([2]; 10 ppm test substance, without test substance 3,8 ± 1,3)","Bitter-Eindruck (1-10) mit Testsubstanz ([3]; without test substance 3,6 ± 2,0)","% Reduktion des Bitter-Eindrucks (Signifikanz) ([3]; without test substance 3,6 ± 2,0, p < 0,25)","% Reduktion des Bitter-Eindrucks (Signifikanz) ([1]; 50 ppm test substance, p < 0,02)","Bitter-Eindruck (1-10) mit Testsubstanz ([1]; 50 ppm test substance, without test substance 5,0 ± 2,0)","% Reduktion des Bitter-Eindrucks (Signifikanz) ([2]; 50 ppm test substance, p < 0,35)","Bitter-Eindruck (1-10) mit Testsubstanz ([2]; 50 ppm test substance, without test substance 3,5 ± 1,4)","Bitter-Eindruck (1-10) mit Testsubstanz ([3]; without test substance 4,2 ± 2,2)"
"O=C1C[C@@H](c2ccncc2)c2c(O)cc(O)cc2O1 (racemic) [(1) + (2), (4S)-5,7-dihydroxy-4-(4-pyridyl)chroman-2-on (1) und (4R)-5,7-dihydroxy-4-(4-pyridyl)chroman-2-on (2)]","52,1 % (p < 0,0001)","3,2 + 1,5","37,0 % (p < 0,0007)","2,4 + 1,0","2,9 ± 1,4","19,4 % (p < 0,25)",–,–,–,–,–
"O=C1C[C@@H](c2cccnc2)c2c(O)cc(O)cc2O1 (racemic) [(3) + (4), (4S)-5,7-dihydroxy-4-(3-pyridyl)chroman-2-on (3) und (4R)-5,7-dihydroxy-4-(3-pyridyl)chroman-2-on (4)]",–,–,–,–,–,–,"34,1 % (p < 0,02)","3,3 ± 1,8","13,7% (p < 0,35)","3,1 ± 1,7","3,4 ± 1,8"
